Measured values from patent US6344191B2, “Chemical attractants for moths” (The United States of America as represented by the …, priority 1998, dated 2002).

What was measured:
Test in all cases: Field trapping test, baited Trappit dome traps in apple and pear orchards
Assay type in all cases: in vivo
Details in all cases: for Numbers captured in traps: Experiment 4, 0.25% acetic acid in drowning solution and/or 1 ml alcohol in cap, unbaited control
[1] = system: Lacanobia subjuncta
Protocol: (§1) Materials and Methods. The Trappit™ dome trap (Agrisense, Fresno, Calif.) was used in all tests. Two hundred ml of a drowning solution was used in the reservoir of all traps. This solution was 200 ml water, 25 μl of detergent, 50 μl yellow, 25 μl blue, and 60 μl red food dyes (McCormick, Hunt Valley, N.J.), and 20 mg clay. Acetic acid, when tested, was added to the drowning solution as a percent of the solution. Alcohols tested were loaded in polyethylene caps (No. 60975D-3, Kimball Glass, Vineland, N.J.) that were impaled on a push pin glued to the inside of the top of the trap. Traps were serviced two or three times per week depending on weather conditions, and the drowning solution with or without acetic acid was replaced weekly. Alcohols in polyethylene caps were replaced monthly.
(§2) All experiments were conducted in commercial apple and pear orchards. Traps were hung from tree branches at 1.5 to 2 m above ground, with 10 m between traps within a block and 10 m between adjacent blocks.
(§3) Experiment Overview. Four trapping experiments were conducted in apple and pear orchards in the Yakima Valley during the summer of 1998. An initial experiment compared captures of pest moths in traps baited with the combination of acetic acid and 3-methyl-1-butanol to acetic acid alone and to fermented molasses solution. The second experiment was a comparison of the attractiveness of the combination of acetic acid and 3-methyl-1-butanol with varying percentages of acetic acid in the drowning solution. The third experiment was a comparison of the attractiveness of the combination of acetic acid and 3-methyl-1-butanol with varying doses of the 3-methyl-1-butanol in the cap. The fourth experiment was a test of possible synergism or enhancement of acetic acid with 3-methyl-1-butanol and acetic acid with 3-methyl-1-pentanol and a comparison of the two alcohols.
(§4) Trap catch data for each species was subjected to an ANOVA and means were separated by Duncan's New Multiple Range Test for the first and fourth experiments. Linear regression was used to analyze trap data from the second and third experiments to determine if their was a significant relationship between concentration (acetic acid) or dose (3-methyl-1-butanol) and captures of moths in traps.
(§5) Experiment 1. Traps were baited (1) with 0.25% acetic acid in the drowning solution, (2) with 0.5% acetic acid in the drowning solution and one ml of 3-methyl-1-butanol in a polyethylene cap, or (3) with 200 ml of a 10% solution of molasses in water. A randomized complete block design was used, with 4 blocks set up in early May. Traps were maintained through May and June and again in August.
(§6) Experiment 2. Traps were all baited with one ml of 3-methyl-1-butanol in a polyethylene cap and with either no acetic acid in the drowning solution or with 0.008, 0.03, 0.125, 0.5, or 2% glacial acetic acid by volume in the 200 ml of drowning solution. A randomized complete block design was used, with 4 blocks set up in late July, with each of the 6 treatments represented within each block. This experiment was maintained through August and early September.
(§7) Experiment 3. Traps were all baited with 0.25% acetic acid in the drowning solution and either 0, 12.5, 25, 50, or 100% 3-methyl-1-butanol in one ml of a mixture of 3-methyl-1-butanol and mineral oil. A randomized complete block design was used with each of the 5 treatments represented within each block. This experiment was set up in late July and was maintained through early September.
(§8) Experiment 4. Traps were either unbaited (control) or were baited with 0.25% acetic acid in the drowning solution (acetic acid), with 0.25% acetic acid in the drowning solution and one ml of 3-methyl-1-butanol in a polyethylene cap, with 0.25% acetic acid in the drowning solution and one ml of 3-methyl-1-pentanol in a polyethylene cap, with one ml of 3-methyl-1-butanol in a cap, or with one ml of 3-methyl-1-pentanol in a cap.

[2] = system: bertha armyworm (Mamestra configurata)
Protocol: as §1, §2, §3, §4, §5, §6, §7, §8

[3] = system: spotted cutworm (Xestia c-nigrum)
Protocol: as §1, §2, §3, §4, §5
Experiment 4. […]

[4] = Experiment 2, 1 ml 3-methyl-1-butanol in cap, no acetic acid
[5] = Experiment 1, 0.25% acetic acid in drowning solution, 200 ml 10% molasses solution

Row | Compound | Numbers of moths captured in traps [1, 4] | Numbers captured in traps [1] | Numbers of moths captured in traps [2, 4] | Numbers captured in traps [2] | Numbers captured in traps [3] | Catches of male or female moths, acetic acid versus molasses [1, 5] | Catches of male or female moths, acetic acid versus molasses [2, 5] | Catches of female moths, acetic acid versus molasses ([3]; Experiment 1, females, 0.25% acetic acid, 10% molasses solution)
1 | CC(C)CCO [3-methyl-1-butanol] | nearly no moths | significantly higher than the unbaited traps | Nearly no | significantly higher than the unbaited traps | significantly higher than the unbaited traps |  |  | 
2 | CCC(C)CCO (centres unmarked) [3-methyl-1-pentanol] |  | significantly higher than the unbaited traps |  | significantly higher than the unbaited traps | significantly higher than the unbaited traps |  |  | 
3 | CC(=O)O [acetic acid, reference compound] |  | significantly higher than the unbaited traps |  | significantly higher than the unbaited traps | significantly higher than the unbaited traps | no difference | no difference | no difference
